Here are results for 28 compounds from patent US7541466B2, “Tetrahydroisoquinoline derivatives for treating protein trafficking diseases” (Genzyme Corporation, priority 2003, dated 2009).

Assay [1] concerns the target T1, ΔF508 CFTR (Homo sapiens, UniProt P13569, DEL508-508).
T1 construct: expressed in transfected cells
Put plainly: MQAE chloride transport assay in C127 cells expressing ΔF508 CFTR. Type of assay: cell-based, murine. Conditions: for Emax: C127, plateau level in activity at high compound concentration, read-out: % of Maximal Response; for pEC50: chloride transport activity, C127 ΔF508 CFTR cells, MQAE. As to the method: C127 cells are a murine mammary epithelial cell line obtained from ATCC (#CRL 1616, American Type Culture Collection, Manassas, Va.). C127 cells were transfected with a bovine papilloma virus-based eukaryotic expression vector containing genes for ΔF508 CFTR and neomycin resistance whose expression was driven by a metallothionein promoter. Clonal cell populations resistant to G418 and positive for staining with anti-CFTR antibody were identified.
C127 cells expressing ΔF508 CFTR were grown in microtiter plates in DMEM (Dulbecco's Modified Eagle Medium, Hyclone, Logan, Utah) supplemented with fetal bovine serum, antibiotics, and glutamine in a 37° C., 5% CO2 atmosphere. Once confluent, the cells were loaded overnight with the disclosed compounds and a fluorescent dye sensitive to chloride ion concentration, N-(ethoxycarbonylmethyl)-6-methoxy quinolinium bromide (MQAE) (Verkman, Am. J. Physiol. 259 C375-C388 (1990)).
The following day, cells were washed with chloride-containing buffer to remove extracellular MQAE and to quench intracellular MQAE fluorescence. Chloride buffer was flicked out and replaced with nitrate buffer with added forskolin and IBMX (isobutylmethylxanthine) to stimulate CFTR activity. […] Buffers were adjusted to pH 7.4 and contained: 10 mM HEPES (N-2-Hydroxyethylpiperazine-N′-2-ethanesulfonic acid), 2.4 mM K2HPO4, 0.6 mM KH2PO4, 1.0 mM CaSO4, 1.0 mM MgSO4, 150 mM NaCl or NaNO3, and 25 mM glucose.
The increase in MQAE fluorescence as a function of time was followed using 360 nm excitation and 460 nm emission wavelengths. Fluorescence increased as chloride flowed out of cells through CFTR and the rate of increase in fluorescence over the first five minutes was taken as a measure of chloride transport activity.
Cells were treated with mixtures of up to 100 compounds per well for ca. 18 hours before the assay for chloride transport activity. […] Dose-response curves were generated and compounds were ranked based on their EC50 values and maximal responses (the plateau level in activity at high compound concentration, as a percentage of the low temperature response).

Assay [2] relates to wild-type C57black6/J mice. The conditions noted are these: female wild-type mice; 4 g/kg/day dose for 2 days; previously measured; cited from earlier work.
Setting [3] is: as a percentage of the low temperature response.

pEC50: −log10 of the molar value.

T1 sequence (P13569 with tags, fused parts or gaps DEL508-508): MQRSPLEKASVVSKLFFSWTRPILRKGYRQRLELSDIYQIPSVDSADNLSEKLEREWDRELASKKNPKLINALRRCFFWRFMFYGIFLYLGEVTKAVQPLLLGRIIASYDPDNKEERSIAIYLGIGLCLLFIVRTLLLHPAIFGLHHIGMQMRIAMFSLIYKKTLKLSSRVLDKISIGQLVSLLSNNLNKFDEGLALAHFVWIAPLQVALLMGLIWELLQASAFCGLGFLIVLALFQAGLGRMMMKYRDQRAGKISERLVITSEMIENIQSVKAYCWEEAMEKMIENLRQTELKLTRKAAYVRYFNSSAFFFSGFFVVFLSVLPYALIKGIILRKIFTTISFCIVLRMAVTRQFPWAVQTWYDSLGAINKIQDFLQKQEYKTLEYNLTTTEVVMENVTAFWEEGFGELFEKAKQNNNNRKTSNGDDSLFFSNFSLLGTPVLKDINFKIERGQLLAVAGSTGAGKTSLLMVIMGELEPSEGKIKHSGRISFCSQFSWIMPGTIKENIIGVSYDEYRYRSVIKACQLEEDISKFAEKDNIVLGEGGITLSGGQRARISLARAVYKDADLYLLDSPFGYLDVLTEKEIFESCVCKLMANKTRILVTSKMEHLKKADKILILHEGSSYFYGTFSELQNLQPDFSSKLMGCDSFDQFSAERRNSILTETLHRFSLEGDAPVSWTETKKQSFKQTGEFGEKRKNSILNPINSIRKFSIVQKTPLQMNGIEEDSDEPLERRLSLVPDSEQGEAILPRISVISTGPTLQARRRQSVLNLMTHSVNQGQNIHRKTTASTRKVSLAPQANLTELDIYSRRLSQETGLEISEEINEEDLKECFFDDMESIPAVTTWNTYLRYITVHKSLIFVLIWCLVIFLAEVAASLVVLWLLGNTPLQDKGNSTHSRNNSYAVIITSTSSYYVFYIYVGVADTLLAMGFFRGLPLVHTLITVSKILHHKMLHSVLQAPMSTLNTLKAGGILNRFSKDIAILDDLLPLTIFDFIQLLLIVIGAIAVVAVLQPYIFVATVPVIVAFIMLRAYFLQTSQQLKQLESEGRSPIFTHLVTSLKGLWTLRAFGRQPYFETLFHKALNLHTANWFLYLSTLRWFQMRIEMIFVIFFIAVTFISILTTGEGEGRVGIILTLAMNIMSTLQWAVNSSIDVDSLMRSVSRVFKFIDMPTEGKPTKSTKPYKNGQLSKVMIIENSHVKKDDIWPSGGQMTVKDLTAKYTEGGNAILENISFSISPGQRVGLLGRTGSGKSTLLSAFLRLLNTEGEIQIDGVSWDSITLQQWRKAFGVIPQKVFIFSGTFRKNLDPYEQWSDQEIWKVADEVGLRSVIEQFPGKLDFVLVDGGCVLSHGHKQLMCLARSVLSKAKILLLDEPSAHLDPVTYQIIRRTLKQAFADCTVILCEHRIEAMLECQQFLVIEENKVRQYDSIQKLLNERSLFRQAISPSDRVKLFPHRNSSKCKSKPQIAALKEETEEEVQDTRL

What is called pEC50 is the EC50 on a negative log10 scale, so that one unit is a factor of ten. For `CCCCCc1ccc(NC(=O)[C@@H]2Cc3ccccc3CN2C(=O)c2ccc3c(c2)OCCO3)cc1` [Compound 135], the Emax in assay [1] (setting [3]) was 56%. In assay [1], this compound showed a pEC50 of 6.54.
The matching figures for `CC(=O)N(C)c1ccc(NC(=O)C2Cc3ccccc3CN2C(=O)c2cccc(Oc3ccccc3)c2)cc1` (racemic) [Compound 85]: 74% and 7.02.
In the same order, the values of `CCCCCc1ccc(NC(=O)[C@@H]2Cc3ccccc3CN2C(=O)c2cccc(OC(CC)CC)c2)cc1` [Compound 141] are 84% and 7.92.
For the compound `CCCCCc1ccc(NC(=O)[C@@H]2Cc3ccccc3CN2C(=O)c2cc(Oc3ccccc3)ccn2)cc1` [Compound 118], the Emax in assay [1] (setting [3]) was found to be 79%.
On to `COc1ccc(NC(=O)[C@@H]2Cc3ccccc3CN2C(=O)c2cc(OC3CCCCC3)ccn2)cn1` [Compound 110], for which the Emax in assay [1] (setting [3]) was found to be 64%. The compound further showed a pEC50 in assay [1] of 6.40.
In the same order, the values of `COc1ccc(NC(=O)C2Cc3ccccc3CN2C(=O)c2cccc(Oc3ccccc3)c2)cn1` (racemic) [Compound 99] are 70% and 6.57.
In the same order, the values of `CCC(C)c1ccc(NC(=O)C2Cc3ccccc3CN2C(=O)c2cccc(Oc3ccccc3)c2)cc1` (racemic) [Compound 77] are 30% and 6.46.
In the same order, the values of `O=C(Nc1ccc(Cl)cc1)C1Cc2ccc(O)cc2CN1C(=O)c1cccc(Oc2ccccc2)c1` (racemic) [Compound 20] are 28% and 5.91.
For the compound `O=C(Nc1ccc(C2CCCCC2)cc1)C1Cc2ccccc2CN1C(=O)c1cccc(Oc2ccccc2)c1` (racemic) [Compound 76], in assay [1] (setting [3]), the Emax was 36%. The same compound had a pEC50 in assay [1] of 6.40.
In the same order, the values of `CCCc1ccc(NC(=O)C2Cc3ccccc3CN2C(=O)c2cccc(Oc3ccccc3)c2)cc1` (racemic) [Compound 75] are 82% and 6.57.
As to `CCOc1cccc(NC(=O)[C@@H]2Cc3ccccc3CN2C(=O)c2cc(OC3CCCCC3)ccn2)c1` [Compound 111], the Emax in assay [1] (setting [3]) stood at 73%. In addition, the pEC50 in assay [1] is 6.82.
For `CCCC(=O)N(C)c1ccc(NC(=O)C2Cc3ccccc3CN2C(=O)c2cccc(Oc3ccccc3)c2)cc1` (racemic) [Compound 95, (±)-2-(3-Phenoxybenzoyl)-1,2,3,4-tetrahydroisoquinoline-3-carboxylic acid[4-(butyrylmethylamino)-phenyl]amide], in assay [1] (setting [3]), the Emax was 80%. The compound further showed a pEC50 in assay [1] of 6.82.
In the same order, the values of `O=C(Nc1ccc(F)cc1)[C@@H]1Cc2ccccc2CN1C(=O)c1cc(OC2CCCCC2)ccn1` [Compound 109] are 87% and 7.02.
Take `Cc1ccc(Oc2cccc(C(=O)N3Cc4ccccc4CC3C(=O)Nc3ccc(Cl)cc3)c2)cc1` (racemic) [Compound 7]: the Emax in assay [1] (setting [3]) is 77%. Moreover, the pEC50 in assay [1] is 6.60.
Turning to `CCCCCc1ccc(NC(=O)C2Cc3c(C)cccc3CN2C(=O)c2cccc(Oc3ccccc3)c2)cc1` (racemic) [Compound 21], the Emax in assay [1] (setting [3]) was 28%. Further, the pEC50 in assay [1] is 6.77.
Regarding `CCCCCc1ccc(NC(=O)C2Cc3ccccc3CN2C(=O)c2cccc(Oc3ccccc3)c2)cc1` (racemic) [Compound 87], the Emax in assay [1] (setting [3]) was 74%.
As for `CC1c2ccccc2CN(C(=O)c2cccc(Oc3ccccc3)c2)C1C(=O)Nc1ccc(Cl)cc1` (single isomer, unassigned) [Compound 19], the pEC50 in assay [1] is 6.82. The “% of Maximal Response” value in assay [1] (plateau level in activity at high compound concentration, as a percentage of the low temperature response) was found to be 69%.
Regarding `CCCCCc1ccc(NC(=O)[C@@H]2Cc3ccccc3CN2C(=O)c2cccc(CN3CCOCC3)c2)cc1` [Compound 123], in assay [1] (setting [3]), the Emax was 63%. The compound further showed a pEC50 in assay [1] of 7.02.
In the same order, the values of `CCCCCc1ccc(NC(=O)[C@@H]2Cc3ccccc3CN2C(=O)c2cccc(OC(C)(C)C)c2)cc1` [Compound 122] are 83% and 8.00.
Regarding `COc1ccccc1Oc1cccc(C(=O)N2Cc3ccccc3CC2C(=O)Nc2ccc(Cl)cc2)c1` (racemic) [Compound 11, (±)-2-[3-(2-Methoxyphenoxy)benzoyl]-1,2,3,4-tetrahydroisoquinoline-3-carboxylic acid(4-chlorophenyl)amide], the Emax in assay [1] (setting [3]) was 52%. The compound further had a pEC50 in assay [1] of 6.59.
In the case of `CCCCCc1ccc(NC(=O)[C@@H]2Cc3ccccc3CN2C(=O)c2ccc(OC)c(OCc3ccccc3)c2)cc1` [Compound 116], in assay [1] (setting [3]), the Emax turned out to be 88%. This compound also gave a pEC50 in assay [1] of 7.74.
Turning to `C[N+](C)(C)[O-]` [trimethylamine oxide, trimethylamine-N-oxide], the “increase of forskolin response in RPD” value in assay [2] is 7.5 mV.
As for `COc1ccc(C(=O)N2Cc3ccccc3CC2C(=O)Nc2ccc(Cl)cc2)cc1Oc1ccccc1` (racemic) [Compound 17], the Emax in assay [1] (setting [3]) came to 65%. For the same compound, the pEC50 in assay [1] is 7.17.
Consider `CCCCCc1ccc(NC(=O)[C@@H]2Cc3ccccc3CN2C(=O)c2cc(Oc3cccnc3)ccn2)cc1` [Compound 147], for which the Emax in assay [1] (setting [3]) came to 32%. The compound further showed a pEC50 in assay [1] of 7.39.
Take `CCCCCc1ccc(NC(=O)[C@@H]2Cc3ccccc3CN2C(=O)c2cccc(Oc3ccc(OC)cc3)c2)cc1` [Compound 112]: the Emax in assay [1] (setting [3]) was 71%. In assay [1], this compound had a negative logarithm of the EC50 (pEC50) of 7.41.
In the same order, the values of `CCc1ccc(NC(=O)C2Cc3ccccc3CN2C(=O)c2cccc(Oc3ccccc3)c2)cc1` (racemic) [Compound 79] are 73% and 6.64.
In the same order, the values of `CC(C)c1ccc(NC(=O)C2Cc3ccccc3CN2C(=O)c2cccc(Oc3ccccc3)c2)cc1` (racemic) [Compound 78] are 40% and 6.60.
As to `CCCCN(C(C)=O)c1ccc(NC(=O)[C@@H]2Cc3ccccc3CN2C(=O)c2cccc(Oc3ccccc3)c2)cc1` [Compound 103], in assay [1] (setting [3]), the Emax was 76%.
